Test results reported in PubChem BioAssay AID1259407 (Chemical Carcinogenesis Research Information System (CCRIS), 2018).
Activity calls are given as the source filed them. No rule for the calls is given here.

System: CCRIS mutagenicity, Ames/micronucleus/aberration tests
Assay: CCRIS mutagenicity studies
[1] = Test System: AMES SALMONELLA TYPHIMURIUM, Strain/Indicator: TA98, Metabolic Activation: RAT, LIVER, S-9, AROCLOR 1254, Method: STANDARD PLATE
[2] = Test System: AMES SALMONELLA TYPHIMURIUM, Strain/Indicator: TA100, Metabolic Activation: NONE, Method: STANDARD PLATE
[3] = Test System: AMES SALMONELLA TYPHIMURIUM, Strain/Indicator: TA100, Metabolic Activation: RAT, LIVER, S-9, AROCLOR 1254, Method: STANDARD PLATE
[4] = Test System: AMES SALMONELLA TYPHIMURIUM, Strain/Indicator: TA100, Metabolic Activation: NONE, Method: PREINCUBATION

SMILES: CCC(CCC(C)O)COC(=O)c1ccccc1C(=O)O (stereo not given)
- mutagenic call (Test System: AMES SALMONELLA TYPHIMURIUM, Strain/Indicator: TA97, Metabolic Activation: NONE, Method: STANDARD PLATE): inactive; negative
- mutagenic call (Test System: AMES SALMONELLA TYPHIMURIUM, Strain/Indicator: TA97, Metabolic Activation: RAT, LIVER, S-9, AROCLOR 1254, Method: STANDARD PLATE): inactive; negative
- mutagenic call (Test System: AMES SALMONELLA TYPHIMURIUM, Strain/Indicator: TA97, Metabolic Activation: RAT, LIVER, S-9, DI(2-ETHYLHEXYL)PHTHALATE, Method: STANDARD PLATE): inactive; negative
- mutagenic call (Test System: AMES SALMONELLA TYPHIMURIUM, Strain/Indicator: TA98, Metabolic Activation: NONE, Method: STANDARD PLATE): inactive; negative
- mutagenic call [1]: inactive; negative
- mutagenic call (Test System: AMES SALMONELLA TYPHIMURIUM, Strain/Indicator: TA98, Metabolic Activation: RAT, LIVER, S-9, DI(2-ETHYLHEXYL)PHTHALATE, Method: STANDARD PLATE): inactive; negative
- mutagenic call [2]: inactive; negative
- mutagenic call [3]: inactive; negative
- mutagenic call (Test System: AMES SALMONELLA TYPHIMURIUM, Strain/Indicator: TA100, Metabolic Activation: RAT, LIVER, S-9, DI(2-ETHYLEXYL)PHTHALATE, Method: STANDARD PLATE): inactive; negative
- mutagenic call (Test System: AMES SALMONELLA TYPHIMURIUM, Strain/Indicator: TA102, Metabolic Activation: NONE, Method: STANDARD PLATE): inactive; negative
- mutagenic call (Test System: AMES SALMONELLA TYPHIMURIUM, Strain/Indicator: TA102, Metabolic Activation: RAT, LIVER, S-9, AROCLOR 1254, Method: STANDARD PLATE): inactive; negative
- mutagenic call (Test System: AMES SALMONELLA TYPHIMURIUM, Strain/Indicator: TA102, Metabolic Activation: RAT, LIVER, S-9, DI(2-ETHYLHEXYL)PHTHALATE, Method: STANDARD PLATE): inactive; negative

SMILES: c1ccc2c(c1)ccc1cc3c(ccc4ccccc43)cc12
- mutagenic call (Test System: AMES SALMONELLA TYPHIMURIUM, Strain/Indicator: TA98, Metabolic Activation: HAMSTER, LIVER, S-9, AROCLOR 1254 (5 OR 30%), Method: PREINCUBATION): inactive; negative
- mutagenic call (Test System: AMES SALMONELLA TYPHIMURIUM, Strain/Indicator: TA98, Metabolic Activation: HAMSTER, LIVER, S-9, AROCLOR 1254 (10%), Method: PREINCUBATION): active; positive
- mutagenic call (Test System: AMES SALMONELLA TYPHIMURIUM, Strain/Indicator: TA98, Metabolic Activation: RAT, LIVER, S-9, AROCLOR 1254 (30%), Method: PREINCUBATION): active; positive
- mutagenic call [1]: active; positive
- mutagenic call (Test System: AMES SALMONELLA TYPHIMURIUM, Strain/Indicator: TA100, Metabolic Activation: HAMSTER, LIVER, S-9, AROCLOR 1254 (5, 10 OR 30%), Method: PREINCUBATION): active; positive
- mutagenic call (Test System: AMES SALMONELLA TYPHIMURIUM, Strain/Indicator: TA100, Metabolic Activation: MOUSE, LIVER, S-9, 3-METHYLCHOLANTHRENE, Method: STANDARD PLATE): active; positive
- mutagenic call (Test System: AMES SALMONELLA TYPHIMURIUM, Strain/Indicator: TA100, Metabolic Activation: MOUSE, LIVER, S-10, AROCLOR 1254): active; positive
- mutagenic call [4]: inactive; negative
- mutagenic call (Test System: AMES SALMONELLA TYPHIMURIUM, Strain/Indicator: TA100, Metabolic Activation: RAT, LIVER, S-9, AROCLOR 1254 (30%), Method: PREINCUBATION): active; positive
- mutagenic call [3]: active; positive
- mutagenic call (Test System: AMES SALMONELLA TYPHIMURIUM, Strain/Indicator: TA1537, Metabolic Activation: RAT, LIVER, S-9, AROCLOR 1254, Method: STANDARD PLATE): active; positive
- mutagenic call (Test System: CHINESE HAMSTER V-79, Strain/Indicator: V-79/6-THIOGUANINE, Metabolic Activation: RAT, LIVER, S-9, PHENOBARBITAL, Method: STANDARD PLATE): active; positive
- mutagenic call (Test System: CHINESE HAMSTER V-79, Strain/Indicator: V-79/OUABAIN, Metabolic Activation: CELL-MEDIATED, Method: STANDARD PLATE): active; positive

SMILES: COc1nsc2c(OCC3CO3)cccc12 (stereo not given)
- mutagenic call [2]: active; positive

SMILES: COCCl
- mutagenic call (End Point: IN VITRO CHROMOSOMAL ABERRATIONS, Test System: CHL CELLS, Metabolic Activation: NONE): active; positive (structural and ploidy changes)
- mutagenic call (End Point: IN VITRO CHROMOSOMAL ABERRATIONS, Test System: CHL CELLS, Metabolic Activation: RAT, LIVER, S-9, SODIUM PHENOBARBITAL AND 5,6-BENZOFLAVONE): active; positive (structural changes)

SMILES: Nc1ccc([As](=O)(O)O)cc1
- mutagenic call (Test System: AMES SALMONELLA TYPHIMURIUM, Strain/Indicator: TA97, Metabolic Activation: HAMSTER, LIVER, S-9, AROCLOR 1254 (10 OR 30%), Method: PREINCUBATION): inactive; negative
- mutagenic call (Test System: AMES SALMONELLA TYPHIMURIUM, Strain/Indicator: TA97, Metabolic Activation: NONE, Method: PREINCUBATION): inactive; negative
- mutagenic call (Test System: AMES SALMONELLA TYPHIMURIUM, Strain/Indicator: TA97, Metabolic Activation: RAT, LIVER, S-9, AROCLOR 1254 (10 OR 30%), Method: PREINCUBATION): inactive; negative
- mutagenic call (Test System: AMES SALMONELLA TYPHIMURIUM, Strain/Indicator: TA98, Metabolic Activation: HAMSTER, LIVER, S-9, AROCLOR 1254 (10 OR 30%), Method: PREINCUBATION): inactive; negative
- mutagenic call (Test System: AMES SALMONELLA TYPHIMURIUM, Strain/Indicator: TA98, Metabolic Activation: NONE, Method: PREINCUBATION): inactive; negative
- mutagenic call (Test System: AMES SALMONELLA TYPHIMURIUM, Strain/Indicator: TA98, Metabolic Activation: RAT, LIVER, S-9, AROCLOR 1254 (10 OR 30%), Method: PREINCUBATION): inactive; negative
- mutagenic call (Test System: AMES SALMONELLA TYPHIMURIUM, Strain/Indicator: TA100, Metabolic Activation: HAMSTER, LIVER, S-9, AROCLOR 1254 (10 OR 30%), Method: PREINCUBATION): inactive; negative
- mutagenic call [4]: inactive; negative
- mutagenic call (Test System: AMES SALMONELLA TYPHIMURIUM, Strain/Indicator: TA100, Metabolic Activation: RAT, LIVER, S-9, AROCLOR 1254 (10 OR 30%), Method: PREINCUBATION): inactive; negative
- mutagenic call (Test System: AMES SALMONELLA TYPHIMURIUM, Strain/Indicator: TA1535, Metabolic Activation: HAMSTER, LIVER, S-9, AROCLOR 1254 (10 OR 30%), Method: PREINCUBATION): inactive; negative
- mutagenic call (Test System: AMES SALMONELLA TYPHIMURIUM, Strain/Indicator: TA1535, Metabolic Activation: NONE, Method: PREINCUBATION): inactive; negative
- mutagenic call (Test System: AMES SALMONELLA TYPHIMURIUM, Strain/Indicator: TA1535, Metabolic Activation: RAT, LIVER, S-9, AROCLOR 1254 (10 OR 30%), Method: PREINCUBATION): inactive; negative
